From US20030055101A1, “Use of statins to inhibit formation of osteoclasts” (priority 2001, published 2003)
Where a name gives a salt, the structure may show the parent alone.

Assays:
[1] = test system: primary murine bone marrow cell cultures; experiment: RANKL-induced osteoclastogenesis in bone marrow cell cultures (TRAP staining); format: cell-based, mouse; conditions: for number of TRAP-positive cells formed: added 2 days post RANKL stimulation (5 days after isolation)
Experimental: Bone marrow cells were cultured with 100 ng/mL of M-CSF for 3 days. The cells were further cultured for 5 more days with either atorvastatin, its S,S-enantiomer or osteoprotegerin (OPG) in the presence of RANKL and M-CSF. Cells were then fixed and stained for TRAP. […] The data shown are mean ±SD (n=4 wells/treatment).
Bone marrow cells treated with M-CSF for 3 days were stimulated with RANKL as well as atorvastatin (0.01 nM, […], and 1 μM), its S,S-enantiomer or OPG. In some experiments atorvastatin was added 2 days post RANKL stimulation (5 days after isolation). On Day 8 postisolation, cells were fixed and stained for TRAP. TRAP-positive multinucleated cells were counted and represented. The data shown are mean of ±SD (n=4 wells/treatment).
Bone marrow cells were cultured in the presence of 100 ng/mL of recombinant murine M-CSF for 3 days after isolation. The cells were then stimulated with murine RANKL (100 ng/mL) in the presence of various doses of atorvastatin (0.01 nM, 1 nM, and 1 μM), S,S-enantiomer of atorvastatin, or osteoprotegerin (OPG) and further cultured for 5 more days and stained for TRAP activity (see FIG. 1).
Osteoclastogenesis involves a series of events which include differentiation, proliferation, activation, and fusion to form multinucleated cells that are capable of resorbing bone. To examine the stage at which atorvastatin inhibits osteoclastogenesis, atorvastatin was added at various times to mouse bone marrow cells in the presence of M-CSF and RANKL.
Briefly, after removing the femur aseptically, the adherent soft tissue was separated from the bone. Using a syringe and a needle, the marrow was flushed using alpha minimum essential medium (α-MEM). Osteoclasts were obtained by culturing bone marrow cells (0.15×10^6 cells/well) in α-MEM containing 10% fetal bovine serum (FBS), 100 IU penicillin, 100 μg/mL of streptomycin and 100 ng/mL of recombinant murine M-CSF for 3 days in 48-well plates. The osteoclasts thus obtained were further cultured with RANKL±atorvastatin, S,S-enantiomer of atorvastatin or osteoprotegerin (OPG), for 5 days. […] In some experiments, the compounds were added on Day 5 postisolation.
(§1) After washing twice with distilled water that was prewarmed to 37° C., the cells were incubated in acetate buffer containing naphthol AS-B1 and Fast Garnet GBC solution for 45 minutes at 37° C. TRAP-positive cells are typically brown in color when viewed under the microscope. The total number of TRAP-positive cells with 3 or more nuclei in each well were counted. TRAP activity is a phenotypic marker of mature osteoclasts.

[2] = test system: osteoclasts in ovariectomized rats; experiment: Osteoclast numbers in ovariectomized rats (tibia histomorphometry); format: in vivo, rat; conditions: for osteoclast numbers: 5 weeks
Experimental: Rats were ovariectomized according to the standard protocol and were administered orally with various doses of atorvastatin (2.5, 5, and 10 mg/kg body weight) for 5 weeks. Tibiae were analyzed for osteoclast number by histomorphometry. Ethinyl estradiol (EE) (0.4 mg/kg), a known bone protective agent, was used as a positive control.
Ovariectomy-induced bone loss in rats is an established model of osteoporosis, wherein estrogen insufficiency leads to increased osteoclastogenesis, possibly due to enhanced cytokine production. To test whether statins decrease bone resorption in vivo, ovariectomized rats were given orally various doses of atorvastatin (2.5, 5, or 10 mg/kg body weight) for 5 weeks. At the end of the study, the animals were sacrificed, and histomorphometric analysis was performed on tibia obtained from the animals.
The rats were ovariectomized according to the standard protocol. Briefly, after anesthesia the rats were cleaned with antiseptic solution. A small incision was made on the back of the animal, and the ovaries were located carefully underneath the fat tissue. After proper clamping, ovaries were removed with a scalpel blade. Also, the fallopian tube with the uterine horn was sealed by electrocautery. Later, the skin incision was closed using wound clips. After recovery from the surgery, animals were randomized into 6 groups of 8 animals each (sham operated, OVX, OVX+ atorvastatin 2.5, 5, 10 mg/kg body weight and OVX+ ethinyl estradiol) and dosed with various concentrations of atorvastatin and vehicle control every day for a period of 5 weeks.
Histomorphometric analysis was performed using decalcified sections of the proximal tibia for cancellous bone and undecalcified sections for cortical bone. Briefly, tibiae were decalcified using 10% ethylene diaminetetraacetic acid (EDTA), followed by […] in ascending concentrations of ethanol and embedded in glycol methacrylate (GMA) resin. The specimens were sectioned at 5 to 10 μm and stained with TRAP and counter stained with methyl green for determination of cellular parameters. Bone histomorphometry was performed using an OsteoMeasure image analysis system connected via a video system to a suitable light microscope.

RAW 264.7 cells = experiment: RANKL-induced osteoclastogenesis in RAW 264.7 cells (TRAP staining); format: cell-based
Experimental: Raw cells (2000/well) were stimulated with RANKL (50 ng/mL)±atorvastatin and S,S-enantiomer of atorvastatin for 5 days and TRAP staining was performed at the end of Day 5 and the data is expressed as % inhibition of number of TRAP-positive cells compared to control.
RAW cells were plated at a density of 2000 cells/well in a 48-well plate and cultured overnight in alpha-MEM medium containing antibiotics. Cells were treated with either RANKL (50 ng/mL)±atorvastatin or the S,S-enantiomer of atorvastatin (10, 1, and 0.01 μM) for 5 days and stained for TRAP enzyme. Purple stained cells with three or more nuclei were counted under the microscope and represented as % inhibition of osteoclastogenesis compared to control cells.
RAW cells were cultured in α-MEM containing 10% FBS, 100 IU penicillin, 100 μg/mL of streptomycin. Cells were plated at a density of 2000 cells/well in a 48-well plate. After overnight incubation, the cells were stimulated with RANKL (50 ng/mL)±atorvastatin, S,S-enantiomer of atorvastatin or OPG for 5 days and stained for TRAP at the end of Day 5.
as §1, with “After initial wash with 1×PBS, the cells were fixed for 30 seconds using acetone based fixing solution containing acetone, citric acid and 37% formaldehyde. After” for “After”

[3] = test system: osteoblast-osteoclast cocultures; conditions: 10 μM; cited from earlier work
[4] = normal and ovariectomized (OVX) rats; cited from earlier work

Molecule: CC(C)c1c(C(=O)Nc2ccccc2)c(-c2ccccc2)c(-c2ccc(F)cc2)n1CC[C@@H](O)C[C@@H](O)CC(=O)O [atorvastatin, [R-(R*,R*)]-2-(4-fluorophenyl)-β,δ-dihydroxy-5-(1-methylethyl)-3-phenyl-4-[(phenylamino)carbonyl]-1H-pyrrole-1-heptanoic acid calcium salt (2:1) trihydrate]
- number of TRAP-positive, multinucleated cells ([1]; 0.01 nM to 1 μM): significantly reduced
- IC50 ([1]; Mus musculus, primary murine bone marrow cell cultures, read-out: IC50, number of TRAP-positive, multinucleated cells): 0.43 nM
- number of TRAP-positive cells formed [1]: able to block
- effect when added on Day 5 compared with Day 3 postisolation ([1]; time course): much more pronounced
- osteoclast numbers ([2]; 5 mg/kg orally, ovariectomized rats): significantly decreased
- osteoclast numbers ([2]; 10 mg/kg orally, ovariectomized rats): significantly decreased
- decrease of osteoclast formation compared with ethinyl estradiol ([2]; both 5 and 10 mg/kg doses, ethinyl estradiol positive control): more effective
- number of osteoclasts formed ([2]; daily oral 2.5-10 mg/kg body weight, 5-week period, ovariectomized rats): significantly decreased
- number of TRAP-positive, multinucleated cells (RAW 264.7 cells; 0.01 nM to 1 μM): significantly reduced
- inhibition at 0.01 µM (RAW 264.7 cells; Mus musculus, RAW264.7, 120 h, 0.01 micromolar, 5 days, RANKL 50 ng/mL, read-out: % inhibition of RANKL-induced multinucleated cell formation): ~80%
- IC50 (RAW 264.7 cells; Mus musculus, RAW264.7, RAW cells, read-out: IC50, number of TRAP-positive, multinucleated cells): 170 nM

Molecule: CC[C@H](C)C(=O)O[C@H]1C[C@@H](C)C=C2C=C[C@H](C)[C@H](CC[C@@H]3C[C@@H](O)CC(=O)O3)[C@H]21 [lovastatin]
- tartrate-resistant acid phosphatase (TRAP) activity [3]: inhibits
- increase in total bone area compared to BMP-2 or b-FGF [4]: greater dose-dependent increase

Molecule: (3S,5S)-7-[2-(4-fluorophenyl)-5-isopropyl-3-phenyl-4-phenylcarbamoyl-pyrrol-1-yl]-3,5-dihydroxy-heptanoic acid calcium salt (2:1) [S,S-enantiomer of atorvastatin]
- number of TRAP-positive cells formed [1]: no differences were observed
- % inhibition of RANKL-induced multinucleated cell formation, compared with atorvastatin (RAW 264.7 cells; 10, 1, and 0.01 μM, 5 days, RANKL 50 ng/mL): significantly less % inhibition

B1: osteoprotegerin (protein, UniProt O00300 22-401, looked up)
Tumor necrosis factor …: ETFPPKYLHYDEETSHQLLCDKCPPGTYLKQHCTAKWKTVCAPCPDHYYTDSWHTSDECLYCSPVCKELQYVKQECNRTHNRVCECKEGRYLEIEFCLKHRSCPPGFGVVQAGTPERNTVCKRCPDGFFSNETSSKAPCRKHTNCSVFGLLLTQKGNATHDNICSGNSESTQKCGIDVTLCEEAFFRFAVPTKFTPNWLSVLVDNLPGTKVNAESVERIKRQHSSQEQTFQLLKLWKHQNKDQDIVKKIIQDIDLCENSVQRHIGHANLTFEQLRSLMESLPGKKVGAEDIEKTIKACKPSDQILKLLSLWRIKNGDQDTLKGLMHALKHSKTYHFPKTVTQSLKKTIRFLHSFTMYKLYQKLFLEMIGNQVQSVKISCL
notes: soluble decoy receptor for RANKL
- number of TRAP-positive multinucleated cells formed by RANKL ([1]; 50 ng/mL added simultaneously with RANKL): completely inhibited
